In the supplement of paper PMC10307832:

Key:
Test in all cases: relative viability (nuclei count vs DMSO), 5 days (fraction); higher = more cells survive
[1] = tested on: NCI-H2087
Procedure, shortened: (§1)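 Relative viability divides the nuclei count in treated wells by that in vehicle wells. Lung cancer cell lines were seeded in 1536-well plates, dosed by pin tool the next day, and fixed and stained after 5 days in one step with final 0.05% Triton X-100, 1% formaldehyde and 1 ug/ml Hoechst. Dosing was a single drug or a fixed anchor-drug dose plus five library-drug doses (not always all listed) in √10 steps, and values are medians of duplicate plates imaged at 4×.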

[2] = tested on: NCI-H2009
Procedure, shortened: as §1

[3] = tested on: NCI-H3122
Procedure, shortened: as §1

[4] = tested on: EKVX
Procedure, shortened: as §1

[5] = tested on: NCI-H520
Procedure, shortened: as §1

[6] = tested on: NCI-H441
Procedure, shortened: as §1

[7] = tested on: NCI-H322M
Procedure, shortened: as §1

[8] = tested on: NCI-H23
Procedure, shortened: as §1

[9] = tested on: NCI-H1755
Procedure, shortened: as §1

[10] = tested on: NCI-H1437
Procedure, shortened: as §1

[11] = tested on: NCI-H2347
Procedure, shortened: as §1

[12] = tested on: ChaGo-K-1
Procedure, shortened: as §1

SMILES: Oc1nc(-c2ccc(C(F)(F)F)cc2)nc2c1CSCC2 [XAV939] + Nc1ncn([C@H]2C[C@H](O)[C@@H](CO)O2)c(=O)n1 [Decitabine] (partner 2 µM)
- relative viability ([1]; first compound 0.08 µM): 0.28
- relative viability ([1]; first compound 0.253 µM): 0.297
- relative viability ([1]; first compound 0.8 µM): 0.302
- relative viability ([1]; first compound 2.53 µM): 0.243
- relative viability ([2]; first compound 0.08 µM): 0.515
- relative viability ([2]; first compound 0.253 µM): 0.359
- relative viability ([2]; first compound 0.8 µM): 0.405
- relative viability ([2]; first compound 2.53 µM): 0.336
- relative viability ([3]; first compound 0.08 µM): 0.572
- relative viability ([3]; first compound 0.253 µM): 0.401
- relative viability ([3]; first compound 0.8 µM): 0.51
- relative viability ([3]; first compound 2.53 µM): 0.394
- relative viability ([4]; first compound 0.08 µM): 0.329
- relative viability ([4]; first compound 0.253 µM): 0.336
- relative viability ([4]; first compound 0.8 µM): 0.356
- relative viability ([4]; first compound 2.53 µM): 0.262
- relative viability ([5]; first compound 0.08 µM): 0.54
- relative viability ([5]; first compound 0.8 µM): 0.457
- relative viability ([5]; first compound 2.53 µM): 0.495
- relative viability ([6]; first compound 0.08 µM): 0.25
- relative viability ([6]; first compound 0.253 µM): 0.253
- relative viability ([6]; first compound 0.8 µM): 0.232
- relative viability ([6]; first compound 2.53 µM): 0.251
- relative viability ([7]; first compound 0.08 µM): 0.684
- relative viability ([7]; first compound 0.253 µM): 0.619
- relative viability ([7]; first compound 0.8 µM): 0.653
- relative viability ([7]; first compound 2.53 µM): 0.566
- relative viability ([8]; first compound 0.08 µM): 0.312
- relative viability ([8]; first compound 0.8 µM): 0.32
- relative viability ([8]; first compound 2.53 µM): 0.273
- relative viability ([9]; first compound 0.08 µM): 0.693
- relative viability ([9]; first compound 0.253 µM): 0.677
- relative viability ([9]; first compound 0.8 µM): 0.72
- relative viability ([9]; first compound 2.53 µM): 0.691
- relative viability ([10]; first compound 0.08 µM): 0.626
- relative viability ([10]; first compound 0.253 µM): 0.478
- relative viability ([10]; first compound 0.8 µM): 0.539
- relative viability ([10]; first compound 2.53 µM): 0.431
- relative viability ([11]; first compound 0.08 µM): 0.62
- relative viability ([11]; first compound 0.253 µM): 0.586
- relative viability ([11]; first compound 0.8 µM): 0.607
- relative viability ([11]; first compound 2.53 µM): 0.517
- relative viability ([12]; first compound 0.08 µM): 0.495
- relative viability ([12]; first compound 0.253 µM): 0.505
- relative viability ([12]; first compound 0.8 µM): 0.507
- relative viability ([12]; first compound 2.53 µM): 0.494
